# Experimental data: PMC10835732, “Pharmacokinetics of Hydroxytyrosol and Its Sulfate and Glucuronide Metabolites after the Oral Administration of Table Olives to Sprague-Dawley Rats” (Journal of Agricultural and Food Chemistry, 2024)
# Values joined by “and” are separate entries in the source; they are usually repeats but may differ in a detail not shown here. Identical values can stand only once. Like-named read-outs stand apart in the source and are kept apart here. Marks after values point to notes of the source that are not given here.
# Legend:
# [1] = healthy volunteers, ref Goldberg et al. 26, cited from earlier work; for AUC: 10 Kalamata olives
# [2] = ref Serra et al. 23, cited from earlier work
# [3] = Plasma pharmacokinetics (noncompartmental analysis) after single oral administration of Arbequina table olives; assay type: in vivo, Sprague-Dawley rats; conditions: for Cmax/D: D = dose of hydroxytyrosol in nmol; for AUC0–∞/D / AUCt/D: D in nmol; for AUCt: time zero up to 8 h; for Tmax: median (min, max); for k el: read-out: λz (apparent elimination rate constant) (converted); for Cmax: read-out: Peak plasma concentration (Cmax), text value with ± spread
# Description: The experiments were performed using Sprague–Dawley rats (n = 13) randomly divided into two groups, the 30 olives group (n = 6) that received the dose of 3.85 g/kg and the 60 olives group (n = 7), which was given the dose of 7.70 g/kg. The freshly prepared homogeneous suspensions were given to overnight fasted rats by oral gavage (18-gauge × 76 mm, ref FFSS-186-76, Instech Laboratories, Inc., Plymouth Meeting, PA). The volume of administration was 10 mL/kg. After the single administration of Arbequina table olives, blood was obtained at 30, 60, 90, 120, 240, 360, and 480 min from each animal. Samples were withdrawn from the lateral saphenous vein and placed into Microvette CB 300 K2 EDTA-K2 (Sarstedt, Granollers, Spain) coated tubes.[31] At each time point, 0.40 mL of blood was collected, meaning that a maximum of 2.4 mL was obtained from each animal. […] Blood corresponding to 480 min was taken by a cardiac puncture with the animal under terminal anesthesia. Plasma was immediately obtained by centrifugation at 1500g at 4 °C for 15 min (Centrifuge Megafuge 1.0R, Heraeus, Boadilla, Spain) and kept at −20 °C until analysis.
# Hydroxytyrosol and its metabolites in plasma were determined by liquid–liquid extraction followed by LC-MS/MS analysis as previously described.[11] Briefly, 200 μL of plasma was mixed with 10 μL of freshly prepared 10% ascorbic acid followed by 10 μL of 0.5% acetic acid and 10 μL of 2-(3-hydroxyphenyl) ethanol (10 μM, I.S.). Then, 2 mL of ethyl acetate was added to the samples that were vigorously mixed in a vortex (5 min), placed into an ultrasonic bath (10 min), and centrifuged at 1500g at 4 °C (15 min) (Centrifuge Megafuge 1.0R). A second extraction of the pellet with 2 mL of ethyl acetate was carried out. Subsequently, the two pooled supernatants were evaporated to dryness, reconstituted with 100 μL of 80% methanol, placed into amber vials, and immediately analyzed by LC-MS/MS.
# The plasmatic concentrations were calculated by the interpolation of the peak area ratio of hydroxytyrosol versus I.S. on a calibration curve. Calibration standards were constructed with blank plasma obtained by cardiac puncture from overnight fasted rats that had never received either table olives or hydroxytyrosol. […] Results were expressed in nmol per liter of plasma (nmol/L). The method was validated following the EMA guidelines[33] at six different concentrations ranging from 0 to 250 nmol/L analyzed on three different days.
# Individual PK of hydroxytyrosol and its metabolites were estimated from the plasma concentrations versus time profiles of each animal, through a noncompartmental analysis (NCA) with Phoenix-64 (Build 8.3.4.295, Certara, Princeton, N.J., USA). All concentrations of each pharmacokinetic profile were considered for NCA because the values obtained were above the LOQ. Peak plasma concentration (Cmax) and time to peak plasma concentration (Tmax) were determined by visual inspection of the pharmacokinetic profiles. The apparent elimination rate constant (λz) was estimated from the terminal slope of the semilogarithmic concentration–time curve. The apparent elimination half-life (t1/2λz) was calculated as t1/2z = 0.693/λz. The area under the plasma concentration–time curve from time zero to the last experimental time (AUCt) with analyte concentrations above the LOQ, was calculated by the linear-log trapezoidal rule. The area from time zero to infinity (AUC0–∞) was calculated by adding to the AUCt value the extrapolated area calculated as the ratio between the predicted concentration (Ct) at the last sampling time with concentrations above the LOQ and λz. The mean residence time (MRT0–∞) was given by the ratio of the area under the first-moment curve (AUMC0–∞) to the area under the zero-moment curve (AUC0–∞). The ratio indicating the relative exposure of each metabolite with respect to hydroxytyrosol (AUC0–∞m/AUC0–∞) was also calculated for all of the metabolites. […]
# [4] = 30 olives group (hydroxytyrosol 2.95 mg/kg oral), geometric mean (95% CI)
# [5] = 60 olives group (hydroxytyrosol 5.89 mg/kg oral), geometric mean (95% CI)
structure (smiles),measurement,setting,value
OCCc1ccc(O)c(O)c1 [hydroxytyrosol],Cmax,"[1]; 10 Kalamata olives with 389.87 mg hydroxytyrosol/kg, parent compound",0.64 nM
same,AUC,[1]; converted unit,0.65 nM·h
same,AUC,[1],0.65 nM·h
same,share in rat plasma,[2]; after phenolic extract from olive cake containing 10.35 mg/kg of hydroxytyrosol,6%
same,Tmax,"[2]; sampling times limited to 1, 2 and 4 h",2 h
same,AUC0–∞,"[3]; 30 olives group (3.85 g olives/kg, hydroxytyrosol 2.95 mg/kg oral), geometric mean (95% CI)","4293 min·nmol/L and 4293 (3815, 4830)^a min·nmol/L"
same,Cmax/D,[3]; [4],"0.0044 (0.0026, 0.0077)^a"
same,AUC0–∞/D,[3]; [4],"0.8149 (0.7420, 0.8949)^a"
same,AUCt/D,[3]; [4],"0.6383 (0.5153, 0.7907)^a"
same,Vss/F (apparent steady-state volume of distribution),[3]; [4],"1139 (671.4, 1932)^a L/kg"
same,AUCt,[3]; [4],"3363 (2642, 4280)a min·nmol/L"
same,AUC0–∞,"[3]; 60 olives group (7.70 g olives/kg, hydroxytyrosol 5.89 mg/kg oral), geometric mean (95% CI)","8919 min·nmol/L and 8919 (6920, 11495)^b min·nmol/L"
same,Cmax/D,[3]; [5],"0.0039 (0.0028, 0.0053)^a"
same,AUC0–∞/D,[3]; [5],"0.7993 (0.6170, 1.035)^a"
same,AUCt/D,[3]; [5],"0.7091 (0.5407, 0.9300)^a"
same,Vss/F (apparent steady-state volume of distribution),[3]; [5],"882.8 (674.2, 1161)^a L/kg"
same,Tmax,[3]; 60 olives group (hydroxytyrosol 5.89 mg/kg oral),"41 (33, 68)^a min"
same,AUCt,[3]; [5],"7912 (6031, 10381)^b min·nmol/L"
same,half-life,"[3]; Sprague-Dawley, rat, plasma, oral, both doses, assuming first-order absorption, read-out: absorption half-life inferred from Cmax/AUC",2.1 to 2.4 h
same,CL/F,"[3]; Sprague-Dawley, rat, plasma, oral, both doses, read-out: Cl/F",~258 L/h/kg
same,Vd/F,"[3]; Sprague-Dawley, rat, plasma, oral, both doses, read-out: Vss/F or Vdarea/F",~1000 L/kg
same,Vd/F,"[3]; Sprague-Dawley, rat, plasma, po, 2.95 mg/kg, 30 olives group (hydroxytyrosol 2.95 mg/kg oral), geometric mean (95% CI), read-out: Vdarea/F (apparent volume of distribution, terminal phase)",1070 L/kg
same,Vd/F,"[3]; Sprague-Dawley, rat, plasma, po, 2.95 mg/kg, 30 olives group (hydroxytyrosol 2.95 mg/kg oral), geometric mean (95% CI), read-out: Vss/F (apparent steady-state volume of distribution)",1140 L/kg
same,half-life,"[3]; Sprague-Dawley, rat, plasma, po, 2.95 mg/kg, 30 olives group (hydroxytyrosol 2.95 mg/kg oral), geometric mean (95% CI), read-out: t1/2λz (apparent elimination half-life)",2.77 h
same,Tmax,"[3]; Sprague-Dawley, rat, plasma, po, 2.95 mg/kg, 30 olives group (hydroxytyrosol 2.95 mg/kg oral), read-out: Tmax (converted)",~1 h
same,Vd/F,"[3]; Sprague-Dawley, rat, plasma, po, 5.89 mg/kg, 60 olives group (hydroxytyrosol 5.89 mg/kg oral), geometric mean (95% CI), read-out: Vdarea/F (apparent volume of distribution, terminal phase)",678 L/kg
same,Vd/F,"[3]; Sprague-Dawley, rat, plasma, po, 5.89 mg/kg, 60 olives group (hydroxytyrosol 5.89 mg/kg oral), geometric mean (95% CI), read-out: Vss/F (apparent steady-state volume of distribution)",883 L/kg
same,half-life,"[3]; Sprague-Dawley, rat, plasma, po, 5.89 mg/kg, 60 olives group (hydroxytyrosol 5.89 mg/kg oral), geometric mean (95% CI), read-out: t1/2λz (apparent elimination half-life)",1.83 h
same,Tmax,"[3]; Sprague-Dawley, rat, plasma, po, 5.89 mg/kg, 60 olives group (hydroxytyrosol 5.89 mg/kg oral), read-out: Tmax (converted)",~0.667 h
same,half-life,"[3]; Sprague-Dawley, rat, plasma, po, both doses (30 and 60 olives groups), oral table olives, read-out: half-life (t1/2λz) (converted)",~2.5 h
same,CL/F,"[3]; Sprague-Dawley, rat, plasma, 30 olives group (hydroxytyrosol 2.95 mg/kg oral), geometric mean (95% CI), read-out: Cl/F (apparent clearance)",268 L/h/kg
same,MRT inf,"[3]; Sprague-Dawley, rat, plasma, 30 olives group (hydroxytyrosol 2.95 mg/kg oral), geometric mean (95% CI), read-out: MRT0–∞ (converted)",4.26 h
same,k el,"[3]; Sprague-Dawley, rat, plasma, 30 olives group (hydroxytyrosol 2.95 mg/kg oral), geometric mean (95% CI)",7e-05 s⁻¹
same,Cmax,"[3]; Sprague-Dawley, rat, plasma, 30 olives group (hydroxytyrosol 2.95 mg/kg oral)",23.4 ± 1.68 nM
same,CL/F,"[3]; Sprague-Dawley, rat, plasma, 60 olives group (hydroxytyrosol 5.89 mg/kg oral), geometric mean (95% CI), read-out: Cl/F (apparent clearance)",257 L/h/kg
same,MRT inf,"[3]; Sprague-Dawley, rat, plasma, 60 olives group (hydroxytyrosol 5.89 mg/kg oral), geometric mean (95% CI), read-out: MRT0–∞ (converted)",3.44 h
same,k el,"[3]; Sprague-Dawley, rat, plasma, 60 olives group (hydroxytyrosol 5.89 mg/kg oral), geometric mean (95% CI)",0.000105 s⁻¹
same,Cmax,"[3]; Sprague-Dawley, rat, plasma, 60 olives group (hydroxytyrosol 5.89 mg/kg oral)",43 ± 1.39 nM
same,MRT inf,"[3]; Sprague-Dawley, rat, plasma, both doses (30 and 60 olives groups), oral table olives, read-out: mean residence time (MRT0–∞)",~4 h
same,PK behaviour between doses (dose linearity),"[3]; between doses of 2.95 and 5.85 mg hydroxytyrosol/kg, noncompartmental analysis",linear PK
same,percentage of the AUC of each compound divided by the AUC of the sum of all of them,"[3]; both doses (similar ratios between doses), plasma",11%
